Values after ≈ are worked out from the molar mass of the structure shown.
Columns and labels:
[1] = Solubility in Na2HPO4/NaH2PO4 buffer at pH 7.4; assay type: physicochemical
[2] = biological target: cGMP-inhibited 3',5'-cyclic phosphodiesterase 3A (Homo sapiens, UniProt Q14432); experiment: Inhibition of human PDE3A3 expressed in baculovirus infected Sf9 cells
[3] = biological target: 3',5'-cyclic-AMP phosphodiesterase 4D (Homo sapiens, UniProt Q08499); experiment: Inhibition of human PDE4D3 expressed in baculovirus infected Sf9 cells
Phosphodiesterase 1 [4] = biological target: T1, Phosphodiesterase 1 (Homo sapiens, UniProt P54750+Q01064+Q14123); experiment: Inhibition of human PDE1 partially purified from THP-1 cells; assay type: cell-free
[5] = biological target: High affinity 3',5'-cyclic-AMP phosphodiesterase 7A (Homo sapiens, UniProt Q13946); experiment: Inhibition of human PDE7A1 expressed in baculovirus infected Sf9 cells
[6] = biological target: cGMP-specific 3',5'-cyclic phosphodiesterase (Homo sapiens, UniProt O76074); experiment: Inhibition of human PDE5 partially purified from MCF-7 cells; assay type: cell-free, MCF7
[7] = Solubility in HCl/KCl buffer at pH 1; assay type: physicochemical
[8] = Clearance in rats when administered at a dose of 0.5 mg/kg i.v.; assay type: ADME, organism-based; design: dose 0.5 mg/kg, route intravenous; details: rat, in vivo, iv
[9] = Volume of distribution in rats when administered at a dose of 0.5 mg/kg i.v.; assay type: ADME, organism-based; design: dose 0.5 mg/kg, route intravenous; details: rat, in vivo, iv
[10] = Half-life in rats after peroral administration of 2.5 mg/kg; assay type: ADME, organism-based; design: dose 2.5 mg/kg, route oral; details: rat, in vivo, po
[11] = Oral bioavailability in rat (dose 2.5 mg/kg); assay type: ADME, organism-based; details: in vivo
Phosphodiesterase 1 [12] = biological target: T1, Phosphodiesterase 1; experiment: Inhibition of human PDE1 expressed in baculovirus infected Sf9 cells

Sequence of cGMP-inhibited 3',5'-cyclic phosphodiesterase 3A (Q14432 whole entry): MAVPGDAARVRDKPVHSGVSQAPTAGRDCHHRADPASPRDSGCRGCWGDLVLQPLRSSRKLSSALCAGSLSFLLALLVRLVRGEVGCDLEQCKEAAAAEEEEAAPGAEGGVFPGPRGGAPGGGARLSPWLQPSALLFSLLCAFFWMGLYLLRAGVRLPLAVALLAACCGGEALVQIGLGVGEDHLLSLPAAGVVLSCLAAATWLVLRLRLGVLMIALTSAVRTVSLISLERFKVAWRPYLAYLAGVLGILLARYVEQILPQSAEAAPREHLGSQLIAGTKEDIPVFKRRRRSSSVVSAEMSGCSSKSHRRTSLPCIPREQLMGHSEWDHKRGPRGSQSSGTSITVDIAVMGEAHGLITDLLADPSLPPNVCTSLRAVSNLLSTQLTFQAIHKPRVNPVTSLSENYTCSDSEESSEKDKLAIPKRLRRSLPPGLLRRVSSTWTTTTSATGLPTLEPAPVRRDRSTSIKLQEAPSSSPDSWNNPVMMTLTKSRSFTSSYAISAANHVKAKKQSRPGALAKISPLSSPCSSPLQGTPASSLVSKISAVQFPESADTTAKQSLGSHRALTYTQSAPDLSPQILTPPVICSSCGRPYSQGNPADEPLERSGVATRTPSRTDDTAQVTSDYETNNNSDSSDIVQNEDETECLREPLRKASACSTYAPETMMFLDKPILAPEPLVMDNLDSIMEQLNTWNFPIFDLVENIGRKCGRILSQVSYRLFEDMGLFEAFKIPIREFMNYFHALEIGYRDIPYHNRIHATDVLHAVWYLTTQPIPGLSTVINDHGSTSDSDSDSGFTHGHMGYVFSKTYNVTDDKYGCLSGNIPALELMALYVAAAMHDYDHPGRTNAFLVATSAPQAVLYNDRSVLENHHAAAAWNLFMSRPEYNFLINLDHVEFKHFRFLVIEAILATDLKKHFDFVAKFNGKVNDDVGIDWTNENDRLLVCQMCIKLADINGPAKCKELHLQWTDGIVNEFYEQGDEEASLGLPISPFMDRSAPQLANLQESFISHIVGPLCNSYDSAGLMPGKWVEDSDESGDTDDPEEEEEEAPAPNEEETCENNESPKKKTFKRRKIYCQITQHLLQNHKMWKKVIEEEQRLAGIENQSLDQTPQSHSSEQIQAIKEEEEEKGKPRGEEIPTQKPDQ
Sequence of High affinity 3',5'-cyclic-AMP phosphodiesterase 7A (Q13946 whole entry): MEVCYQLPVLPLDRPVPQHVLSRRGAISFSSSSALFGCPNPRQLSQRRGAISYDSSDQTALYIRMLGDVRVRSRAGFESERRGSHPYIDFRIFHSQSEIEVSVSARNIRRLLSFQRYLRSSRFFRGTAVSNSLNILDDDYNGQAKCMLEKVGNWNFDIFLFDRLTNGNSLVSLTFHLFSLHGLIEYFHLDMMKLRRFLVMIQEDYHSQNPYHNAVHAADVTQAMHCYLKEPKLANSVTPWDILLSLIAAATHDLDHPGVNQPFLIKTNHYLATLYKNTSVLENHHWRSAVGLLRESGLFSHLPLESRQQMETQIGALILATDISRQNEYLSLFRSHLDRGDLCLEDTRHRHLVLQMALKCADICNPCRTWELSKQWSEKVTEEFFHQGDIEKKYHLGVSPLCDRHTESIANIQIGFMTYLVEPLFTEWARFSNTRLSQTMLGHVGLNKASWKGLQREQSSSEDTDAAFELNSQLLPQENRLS
Sequence of 3',5'-cyclic-AMP phosphodiesterase 4D (Q08499 whole entry): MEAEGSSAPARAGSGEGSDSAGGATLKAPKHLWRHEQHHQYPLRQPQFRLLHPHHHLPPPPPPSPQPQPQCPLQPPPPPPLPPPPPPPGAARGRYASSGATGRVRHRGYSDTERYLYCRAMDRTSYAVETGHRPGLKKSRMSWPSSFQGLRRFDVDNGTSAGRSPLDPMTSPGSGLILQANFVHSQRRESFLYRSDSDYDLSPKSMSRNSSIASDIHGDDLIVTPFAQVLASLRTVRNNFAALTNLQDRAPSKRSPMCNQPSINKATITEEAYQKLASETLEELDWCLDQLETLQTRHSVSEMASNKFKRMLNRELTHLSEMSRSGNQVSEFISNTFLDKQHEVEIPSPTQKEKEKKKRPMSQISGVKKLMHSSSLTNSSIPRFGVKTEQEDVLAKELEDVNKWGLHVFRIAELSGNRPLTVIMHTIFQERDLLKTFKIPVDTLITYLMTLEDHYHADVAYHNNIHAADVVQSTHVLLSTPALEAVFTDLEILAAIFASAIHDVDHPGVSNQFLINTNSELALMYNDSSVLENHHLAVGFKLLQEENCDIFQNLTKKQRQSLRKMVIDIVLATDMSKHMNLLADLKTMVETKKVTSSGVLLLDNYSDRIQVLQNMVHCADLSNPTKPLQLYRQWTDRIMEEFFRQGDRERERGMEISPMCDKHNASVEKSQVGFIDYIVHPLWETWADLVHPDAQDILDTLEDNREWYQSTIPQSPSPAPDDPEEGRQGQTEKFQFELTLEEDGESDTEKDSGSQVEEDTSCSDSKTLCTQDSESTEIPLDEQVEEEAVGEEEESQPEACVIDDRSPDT

| Compound | solubility [1] | IC50 [2] | IC50 [3] | IC50 (Phosphodiesterase 1 [4]) | IC50 [5] | IC50 [6] | solubility [7] | clearance [8] | Vd [9] | half-life [10] | bioavailability [11] | IC50 (Phosphodiesterase 1 [12]) |
| --- | --- | --- | --- | --- | --- | --- | --- | --- | --- | --- | --- | --- |
| O=C1Nc2c(Cl)ccc(OCc3noc(O)n3)c2C2(CCCCC2)N1 | 113 µg/mL (≈ 310 µM) | 21.9 µM | 0.82 µM | 0.61 µM | 0.0035 µM | > 101 µM | < 1 µg/mL | – | – | – | – | – |
| O=C1Nc2c(Cl)ccc(O)c2C2(CCCCC2)N1 | – | – | – | – | 0.01 µM | – | – | – | – | – | – | – |
| O=C(O)COc1ccc(Cl)c2c1C1(CCCCC1)NC(=O)N2 | > 500 µg/mL | > 68 µM | 15 µM | 4.76 µM | 0.04 µM | > 101 µM | 1 µg/mL (≈ 3.08 µM) | 39.4 mL/min/kg | 1.04 L/kg | 1.4 h | 21% | – |
| O=C1Nc2c(Cl)ccc(OCCO)c2C2(CCCCC2)N1 | 18 µg/mL (≈ 57.9 µM) | > 73 µM | 12.2 µM | 10.5 µM | 0.05 µM | > 91 µM | 11 µg/mL (≈ 35.4 µM) | 33.6 mL/min/kg | 1.41 L/kg | 1.5 h | 27% | – |
| CN(C)CC(O)COc1ccc(Cl)c2c1C1(CCCCC1)NC(=O)N2 (stereo unspecified) | 137 µg/mL (≈ 372 µM) | > 101 µM | 55 µM | > 101 µM | 0.4 µM | > 101 µM | > 500 µg/mL | – | – | – | – | – |
| N#CCOc1ccc(Cl)c2c1C1(CCCCC1)NC(=O)N2 | 4 µg/mL (≈ 13.1 µM) | 94 µM | 1.7 µM | 5.86 µM | 0.02 µM | > 101 µM | 4 µg/mL (≈ 13.1 µM) | – | – | – | – | – |
| NCCOCCOc1ccc(Cl)c2c1C1(CCCCC1)NC(=O)N2 | > 500 µg/mL | > 101 µM | 99 µM | > 101 µM | 1.62 µM | > 101 µM | > 500 µg/mL | – | – | – | – | – |
| O=C1Nc2c(Cl)ccc(OCc3nn[nH]n3)c2C2(CCCCC2)N1 | 345 µg/mL (≈ 989 µM) | 11.8 µM | 0.32 µM | – | 0.004 µM | > 88 µM | < 1 µg/mL | – | – | – | – | 0.32 µM |
| CN(C)CCOc1ccc(Cl)c2c1C1(CCCCC1)NC(=O)N2 | 195 µg/mL (≈ 577 µM) | > 101 µM | 3.28 µM | 19 µM | 0.15 µM | 74 µM | > 500 µg/mL | – | – | – | – | – |
| CNCCOc1ccc(Cl)c2c1C1(CCCCC1)NC(=O)N2 | > 500 µg/mL | > 101 µM | 53.2 µM | 72.4 µM | 0.96 µM | > 101 µM | > 500 µg/mL | – | – | – | – | – |
| COc1ccc(Cl)c2c1C1(CCCCC1)NC(=O)N2 | – | – | – | – | 0.01 µM | – | – | – | – | – | – | – |
| CN(C)CCCOc1ccc(Cl)c2c1C1(CCCCC1)NC(=O)N2 | – | > 101 µM | 23.7 µM | > 101 µM | 1.24 µM | 98 µM | – | – | – | – | – | – |
| NCCOc1ccc(Cl)c2c1C1(CCCCC1)NC(=O)N2 | 190 µg/mL (≈ 613 µM) | > 101 µM | 10.5 µM | 33 µM | 1.04 µM | 73.2 µM | > 500 µg/mL | – | – | – | – | – |
| O=C1Nc2c(Cl)cccc2C2(CCCCC2)N1 | – | – | – | – | 0.17 µM | – | – | – | – | – | – | – |
| O=C1Nc2c(Cl)ccc(OCCN3CCOCC3)c2C2(CCCCC2)N1 | 4 µg/mL (≈ 10.5 µM) | > 101 µM | 7.35 µM | 29 µM | 0.03 µM | > 101 µM | > 500 µg/mL | 62.8 mL/min/kg | 1.02 L/kg | 0.32 h | 3.7% | – |
| CCOC(=O)c1ccc(COc2ccc(Cl)c3c2C2(CCCCC2)NC(=O)N3)o1 | – | 78 µM | 1.02 µM | 2.98 µM | 0.01 µM | 80 µM | – | – | – | – | – | – |
| O=C1Nc2c(Cl)ccc(OCCCS(=O)(=O)O)c2C2(CCCCC2)N1 | > 500 µg/mL | 12.7 µM | 2.41 µM | 0.65 µM | 0.01 µM | 60 µM | > 500 µg/mL | – | – | – | – | – |
| O=C(O)CNCCOc1ccc(Cl)c2c1C1(CCCCC1)NC(=O)N2 | 230 µg/mL (≈ 625 µM) | > 101 µM | 14.7 µM | 29.7 µM | 0.04 µM | > 101 µM | > 500 µg/mL | 39.9 mL/min/kg | 0.47 L/kg | 2.7 h | 6.5% | – |
| Cc1ccc(Cl)c2c1C1(CCCCC1)NC(=O)N2 | – | – | – | – | 0.1 µM | – | – | – | – | – | – | – |
| CNCC(O)COc1ccc(Cl)c2c1C1(CCCCC1)NC(=O)N2 (stereo unspecified) | > 500 µg/mL | > 101 µM | 12 µM | > 101 µM | 0.21 µM | > 101 µM | > 500 µg/mL | – | – | – | – | – |
| O=C1Nc2c(Cl)ccc(OCc3ccc(C(=O)O)o3)c2C2(CCCCC2)N1 | 100 µg/mL (≈ 256 µM) | 10.8 µM | 1.13 µM | 1.6 µM | 0.016 µM | > 101 µM | < 1 µg/mL | – | – | – | – | – |
| O=C1Nc2c(Cl)ccc(Cl)c2C2(CCCCC2)N1 | – | – | – | – | 0.01 µM | – | – | – | – | – | – | – |
